Measured values as given in patent publication US7781470B2, “Aminodicarboxylic acid derivatives having pharmaceutical properties” (Bayer Schering Pharma Aktiengesellschaft, priority 1999, dated 2010).
Where a name gives a salt, the structure may show the parent alone. Values belong to the molecule of their own block, whether it stands above or below them.

How the values were obtained:
arteria saphena rings = experiment: Vasal relaxant action in vitro (phenylephrin-contracted artery rings); type: cell-based, Rabbits; details: Oryctolagus cuniculus; concentration reducing phenylephrin-induced contraction by 50%; rabbit arteria saphena rings; read-out: IC50 vasorelaxant action in vitro
Description: Rabbits are anaesthetized by intravenous injection of thiopental sodium […] (about 50 mg/kg) and exsanguinated. The arteria saphena is removed and divided into 3 mm wide rings. The rings are individually mounted on in each case one triangular pair of hooks, open at the end, made of 0.3 mm strong special wire (Remanium®). Under a pretension, each ring is transferred into 5 ml organ baths containing a warm, carbogen-aerated Krebs-Henseleit solution at 37° C. having the following composition (mM): NaCl: 119; KCl: 4.8; CaCl2×2H2O: 1; MgSO4×7 H2O: 1.4; KH2PO4: 1.2; NaHCO3: 25; glucose: 10; bovine serum albumin: 0.001%. The contractility is detected using Statham UC2 cells, amplified and digitalized by means of A/D converters (DAS-1802 HC, Keithley Instruments Munich), and recorded in parallel on linear recorders. Contractions are induced by addition of phenylephrin.
After several (in general 4) control cycles, the substance to be investigated is added in each further passage in increasing dosage, and the height of the contraction achieved under the influence of the test substance is compared with the height of the contraction achieved in the last preliminary passage. From this, the concentration which is necessary in order to reduce the contraction achieved in the preliminary control by 50% ((IC50) is calculated. The standard administration volume is 5 μl. The proportion of DMSO in the bath solution corresponds to 0.1%.

[1] = molecular target: T1, Haem-containing sGC (recombinant soluble guanylate cyclase) (Rattus norvegicus, UniProt P20595); experiment: Stimulation of recombinant soluble guanylate cyclase (sGC) in vitro, haem-containing enzyme; type: biochemical
T1 construct: made in house
T1 sequence (P20595 1-619): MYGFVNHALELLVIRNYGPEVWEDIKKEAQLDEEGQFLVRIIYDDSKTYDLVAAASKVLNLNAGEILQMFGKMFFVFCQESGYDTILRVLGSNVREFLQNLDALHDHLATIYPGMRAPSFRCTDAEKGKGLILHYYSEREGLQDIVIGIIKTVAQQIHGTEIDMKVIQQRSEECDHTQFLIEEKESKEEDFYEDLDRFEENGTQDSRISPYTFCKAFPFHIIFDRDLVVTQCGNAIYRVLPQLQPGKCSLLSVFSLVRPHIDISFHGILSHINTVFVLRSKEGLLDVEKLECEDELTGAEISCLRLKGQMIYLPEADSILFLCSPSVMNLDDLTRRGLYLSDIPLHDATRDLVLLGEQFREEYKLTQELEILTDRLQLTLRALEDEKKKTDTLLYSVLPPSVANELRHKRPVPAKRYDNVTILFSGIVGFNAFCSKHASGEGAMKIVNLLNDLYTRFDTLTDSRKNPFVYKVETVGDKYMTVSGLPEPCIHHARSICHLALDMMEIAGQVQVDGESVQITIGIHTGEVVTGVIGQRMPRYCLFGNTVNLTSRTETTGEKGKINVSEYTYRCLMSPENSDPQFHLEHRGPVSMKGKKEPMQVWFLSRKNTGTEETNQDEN
T1 sequence (P19686 1-690 partner): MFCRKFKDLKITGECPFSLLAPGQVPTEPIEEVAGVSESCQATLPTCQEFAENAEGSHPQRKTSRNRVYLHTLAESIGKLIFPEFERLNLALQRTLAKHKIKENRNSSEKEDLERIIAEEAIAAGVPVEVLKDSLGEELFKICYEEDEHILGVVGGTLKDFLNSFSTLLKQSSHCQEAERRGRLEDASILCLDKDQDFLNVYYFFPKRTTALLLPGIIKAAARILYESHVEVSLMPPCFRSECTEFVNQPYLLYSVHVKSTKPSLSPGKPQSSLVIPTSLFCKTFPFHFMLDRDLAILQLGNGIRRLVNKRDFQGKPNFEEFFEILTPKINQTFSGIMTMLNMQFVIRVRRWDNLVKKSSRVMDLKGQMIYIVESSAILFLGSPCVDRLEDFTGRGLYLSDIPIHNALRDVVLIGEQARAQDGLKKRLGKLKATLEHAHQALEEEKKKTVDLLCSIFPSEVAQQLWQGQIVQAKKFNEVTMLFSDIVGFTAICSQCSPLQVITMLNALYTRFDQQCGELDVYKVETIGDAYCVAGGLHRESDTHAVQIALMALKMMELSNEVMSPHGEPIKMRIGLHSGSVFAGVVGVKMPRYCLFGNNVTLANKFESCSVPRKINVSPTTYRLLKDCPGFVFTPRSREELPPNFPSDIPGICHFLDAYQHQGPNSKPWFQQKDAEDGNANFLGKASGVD
Description: (§1) The investigations on the stimulation of recombinant soluble guanylate cyclase (sGC) and the compounds according to the invention with and without sodium nitroprusside and with and without the haem-dependent sGC inhibitor 1H-1,2,4-oxadiazole-(4,3a)-quinoxalin-1-one (ODQ) were carried out by the method described in detail in the following literature reference: M. Hoenicka, E. M. Becker, H. Apeler, T. Sirichoke, H. Schroeder, R. Gerzer and J.-P. Stasch: Purified soluble guanylyl cyclase expressed in a baculovirus/Sf9 system: stimulation by YC-1, nitric oxide, and […]. J. Mol. Med. 77 (1999): 14-23.
(§2) Activation of sGC by a test substance is stated as n-fold stimulation of basal activity.

[2] = molecular target: T2, Haem-free sGC (recombinant soluble guanylate cyclase) (Rattus norvegicus, UniProt P20595); experiment: Stimulation of recombinant soluble guanylate cyclase (sGC) in vitro, haem-free enzyme; type: biochemical; details: for Stimulation (n-fold), haem-free sGC, basal: Tween 20 0.5%
T2 construct: made in house
T2 sequence (P20595 1-619): T1 sequence (P20595 1-619)
T2 sequence (P19686 1-690 partner): T1 sequence (P19686 1-690 partner)
Description: as §1
Haem-free guanylate cyclase was obtained by adding Tween 20 to the sample buffer (final concentration 0.5%).
as §2

[3] = 0.1 μM test compound + ODQ 10 μM
[4] = 1.0 μM test compound + ODQ 10 μM
[5] = 10 μM test compound + ODQ 10 μM
[6] = ODQ 10 μM, Ex. 87 concentration 0

IC50 (arteria saphena rings): 0.4 nM
Structure (SMILES): O=C(O)CCCCN(CCc1ccccc1OCc1ccc(CCc2ccccc2)cc1)Cc1ccc(C(=O)O)cc1 [Example 8, 4-[((4-Carboxybutyl)-{2-[(4-phenethylbenzyl)oxy]phenethyl}amino)-methyl]benzoic Acid Hydrochloride]

IC50 (arteria saphena rings): 2.8 nM
Structure (SMILES): O=C(O)CCCCN(CCc1ccccc1OCc1ccc(Oc2ccc(Cl)cc2)cc1)Cc1ccc(C(=O)O)cc1 [Example 28]

IC50 (arteria saphena rings): 17 nM
Structure (SMILES): CC(C)(C)c1ccc(COc2ccccc2CCN(CCCCC(=O)O)Cc2ccc(C(=O)O)cc2)cc1 [Example 30]

IC50 (arteria saphena rings): 6.5 nM
Structure (SMILES): O=C(O)CCCCN(CCc1ccccc1OCc1ccc(OCc2ccccc2)cc1)Cc1ccc(C(=O)O)cc1 [Example 32]

IC50 (arteria saphena rings): 0.5 nM
Structure (SMILES): O=C(O)CCCCN(CCc1ccccc1OCc1ccc(/C=C/c2ccccc2)cc1)Cc1ccc(C(=O)O)cc1 [Example 33]

IC50 (arteria saphena rings): 830 nM
Structure (SMILES): C#CCOc1ccccc1CCN(CCCCC(=O)O)Cc1ccc(C(=O)O)cc1 [Example 37]

IC50 (arteria saphena rings): 73 nM
Structure (SMILES): O=C(O)CCCCCN(CCc1ccccc1OCc1ccc(-c2ccccc2)cc1)Cc1ccc(C(=O)O)cc1 [Example 56]

IC50 (arteria saphena rings): 0.2 nM
Structure (SMILES): O=C(O)CCCCN(CCc1ccccc1OCc1ccc(C2CCCCC2)cc1)Cc1ccc(C(=O)O)cc1 [Example 70]

IC50 (arteria saphena rings): 29 nM
Structure (SMILES): O=C(O)CCCCN(CCc1ccccc1OCc1ccc(-c2csc(C(F)(F)F)n2)cc1)Cc1ccc(C(=O)O)cc1 [Example 72]

IC50 (arteria saphena rings): 29 nM
Structure (SMILES): O=C(O)CCCCN(CCc1ccccc1OCc1ccc2c(c1)CCCC2)Cc1ccc(C(=O)O)cc1 [Example 76]

IC50 (arteria saphena rings): 0.4 nM
Structure (SMILES): O=C(O)CCCCN(CCc1ccccc1OCc1ccc(Oc2ccc(C(F)(F)F)cc2)cc1)Cc1ccc(C(=O)O)cc1 [Example 86]

IC50 (arteria saphena rings): 0.5 nM
Stimulation (n-fold), haem-containing sGC, +ODQ (10 μM) [1, 3]: 132 n-fold
Stimulation (n-fold), haem-containing sGC, +SNP (0.1 μM) ([1]; 0.1 μM test compound + SNP 0.1 μM): 41 n-fold
Stimulation (n-fold), haem-containing sGC, basal ([1]; 0.1 μM test compound, n-fold stimulation of basal activity): 15 n-fold
Stimulation (n-fold), haem-containing sGC, basal ([1]; 1.0 μM test compound): 18 n-fold
Stimulation (n-fold), haem-containing sGC, +ODQ (10 μM) [1, 4]: 115 n-fold
Stimulation (n-fold), haem-containing sGC, +SNP (0.1 μM) ([1]; 1.0 μM test compound + SNP 0.1 μM): 47 n-fold
Stimulation (n-fold), haem-containing sGC, basal ([1]; 10 μM test compound): 24 n-fold
Stimulation (n-fold), haem-containing sGC, +ODQ (10 μM) [1, 5]: 181 n-fold
Stimulation (n-fold), haem-containing sGC, +SNP (0.1 μM) ([1]; 10 μM test compound + SNP 0.1 μM): 60 n-fold
Stimulation (n-fold), haem-free sGC, +ODQ (10 μM) [2, 3]: 361 n-fold
Stimulation (n-fold), haem-free sGC, basal ([2]; 0.1 μM test compound): 353 n-fold
Stimulation (n-fold), haem-free sGC, +ODQ (10 μM) [2, 4]: 457 n-fold
Stimulation (n-fold), haem-free sGC, basal ([2]; 1.0 μM test compound): 491 n-fold
Stimulation (n-fold), haem-free sGC, +ODQ (10 μM) [2, 5]: 477 n-fold
Stimulation (n-fold), haem-free sGC, basal ([2]; 10 μM test compound): 529 n-fold
Structure (SMILES): O=C(O)CCCCN(CCc1ccccc1OCc1ccc(-c2ccc(Cl)cc2)cc1)Cc1ccc(C(=O)O)cc1 [Example 87]

IC50 (arteria saphena rings): 0.4 nM
Structure (SMILES): COc1ccc(-c2ccc(COc3ccccc3CCN(CCCCC(=O)O)Cc3ccc(C(=O)O)cc3)cc2)cc1 [Example 88]

IC50 (arteria saphena rings): 3.4 nM
Structure (SMILES): O=C(O)c1ccc(CN(CCOc2ccc(C(=O)O)cc2)CCc2ccccc2OCCCCCc2ccccc2)cc1 [Example 98]

IC50 (arteria saphena rings): 0.2 nM
Structure (SMILES): O=C(O)c1ccc(CN(CCOc2ccc(C(=O)O)cc2)CCc2ccccc2OCc2ccc(C3CCCCC3)cc2)cc1 [Example 102]

IC50 (arteria saphena rings): 3.9 nM
Structure (SMILES): CCCCCCCCOc1ccccc1CCN(CCOc1ccc(C(=O)O)cc1)Cc1ccc(C(=O)O)cc1 [Example 103]

Stimulation (n-fold), haem-containing sGC, ODQ alone [1, 6]: 1 n-fold
Stimulation (n-fold), haem-free sGC, ODQ alone [2, 6]: 1 n-fold
Structure (SMILES): O=c1onc2cnc3ccccc3n12 [ODQ, 1H-1,2,4-oxadiazol-(4,3a)-quinoxalin-1-one, reference compound]
